Data: publication PMC7525662, “Preclinical dosimetry models and the prediction of clinical doses of novel positron emission tomography radiotracers” (Scientific Reports, 2020)

Experiments:
[1] = Residence times normalised to human organ masses, iterative reconstruction; design: species or system Sprague–Dawley rats; details: rat, in vivo
Description: PET studies were reconstructed using filtered-back projection (FBP) and Mediso’s iterative Tera-Tomo 3D reconstruction algorithm with the following settings: 4 iterations, 6 subsets, full detector model, normal regularization, spike filter on, voxel size 0.4 mm and 400‒600 keV energy window. PET data were corrected for randoms, scatter and attenuation. Time-activity curves for each source organ, whole-body and remainder of the body were plotted. […] Residence times (τ) were determined for each radiotracer in source organs, whole-body and remaining (any activity assigned to the whole-body but not assigned to a source organ). Each preclinical source organ’s τ was determined by calculating the area under its respective time-activity curve (activity normalised to the percentage maximum injected dose as a function of time) using the trapezoid method. […] From each individual animal, eight dosimetry models were constructed from all possible combinations of image reconstruction method (FBP or iterative), τ (non-normalised or normalised to human organ masses), and sex of phantom (male or female). Supplementary table 1. Scaling (normalisation) factors applied to residence times of PET radiotracers in male Sprague-Dawley rats to predict human adult residence times. […] Stabin et al. 2006 ^4); WB: Whole Body.

[2] = Comparison of predicted doses across the eight dosimetry models and radiotracers; design: species or system Sprague–Dawley rats; details: rat, in vivo
Description: Time-activity curves for each source organ, whole-body and remainder of the body were plotted. […] Residence times (τ) were determined for each radiotracer in source organs, whole-body and remaining (any activity assigned to the whole-body but not assigned to a source organ). Each preclinical source organ’s τ was determined by calculating the area under its respective time-activity curve (activity normalised to the percentage maximum injected dose as a function of time) using the trapezoid method. […] From each individual animal, eight dosimetry models were constructed from all possible combinations of image reconstruction method (FBP or iterative), τ (non-normalised or normalised to human organ masses), and sex of phantom (male or female). All graphs and statistical analyses were generated and performed in GraphPad Prism 5.01 (GraphPad Software Inc., California, USA). One-way ANOVA followed by a Dunnett’s multiple comparison post-hoc test with [^18F]FDG as the control was used to determine which novel radiotracers’ biodistribution and dosimetry differed from [^18F]FDG in the same organs. All statistical tests used α = 0.05 as the measure for statistical significance. Bland–Altman plots were calculated as previously described[33],[34].

[3] = Residence times in rat source organs from whole-body PET, iterative reconstruction; design: species or system Sprague–Dawley rats; details: in vivo, iv
Description: Immediately after radiotracer administration, a 240 min emission scan using 4 beds (50% overlap) was obtained using 3-dimensional 1:5 mode and re-binned as follows: 7 × 1 min, 2 × 5 min and 4 × 10 min. Throughout the PET/CT scanning session, animal temperature and respiration rate were monitored and controlled. PET studies were reconstructed using filtered-back projection (FBP) and Mediso’s iterative Tera-Tomo 3D reconstruction algorithm with the following settings: 4 iterations, 6 subsets, full detector model, normal regularization, spike filter on, voxel size 0.4 mm and 400‒600 keV energy window. PET data were corrected for randoms, scatter and attenuation. […] Then, PMOD’s contours interpolation tool was used to interpolate ROIs for each organ into a corresponding volume-of-interest (VOI). A static cuboidal VOI was also drawn to include the animal whole-body. Time-activity curves for each source organ, whole-body and remainder of the body were plotted. […] Residence times (τ) were determined for each radiotracer in source organs, whole-body and remaining (any activity assigned to the whole-body but not assigned to a source organ). Each preclinical source organ’s τ was determined by calculating the area under its respective time-activity curve (activity normalised to the percentage maximum injected dose as a function of time) using the trapezoid method. […] From each individual animal, eight dosimetry models were constructed from all possible combinations of image reconstruction method (FBP or iterative), τ (non-normalised or normalised to human organ masses), and sex of phantom (male or female).

[4] = Whole-body PET biodistribution in rats; type: in vivo, Sprague–Dawley rats; details: PET images, i.v. bolus, 240 min
Description: On the day of imaging, rats were anaesthetised with 2‒2.5% isoflurane (50/50 oxygen/nitrous oxide, 1 L/min), then transferred to the preclinical PET/CT scanner (nanoPET/CT, Mediso, Hungary) and placed in a supine position. A CT scan (semi-circular full trajectory, maximum field of view, 480 projections, 50 kVp, 300 ms and 1:4 binning) was acquired for attenuation correction.
Immediately after radiotracer administration, a 240 min emission scan using 4 beds (50% overlap) was obtained using 3-dimensional 1:5 mode and re-binned as follows: 7 × 1 min, 2 × 5 min and 4 × 10 min. Throughout the PET/CT scanning session, animal temperature and respiration rate were monitored and controlled.
PET studies were reconstructed using filtered-back projection (FBP) and Mediso’s iterative Tera-Tomo 3D reconstruction algorithm with the following settings: 4 iterations, 6 subsets, full detector model, normal regularization, spike filter on, voxel size 0.4 mm and 400‒600 keV energy window. PET data were corrected for randoms, scatter and attenuation.
Reconstructed whole-body PET/CT images were imported into PMOD 3.8 software (PMOD Technologies, Switzerland) and static regions-of-interest (ROIs) were selected in approximately every third axial slice of source organs in animal subjects, which included the kidneys (left and right), urinary bladder, lungs (right and left), heart, brain, liver and intestine. […]

NOTA-RGDfK [existing Al^18F-labelled NOTA-RGDfK peptide PET radiotracer; precursor NOTA-RGDfK (1)]
Normalised Residence Time (h), Average: Remaining [1]: 1 h
organs predicted to receive the highest absorbed doses (ranking) [2]: urinary bladder > LLI wall > kidneys
Residence Time (h), Average: Brain [3]: 0.00225 h
Residence Time (h), Average: Heart [3]: 0.00473 h
Residence Time (h), Average: Intestine [3]: 0.212 h
Residence Time (h), Average: Kidneys [3]: 0.0652 h
Residence Time (h), Average: Liver [3]: 0.0391 h
Residence Time (h), Average: Lungs [3]: 0.00647 h
Residence Time (h), Average: Remaining [3]: 0.996 h
Residence Time (h), Average: Urinary Bladder [3]: 1.44 h

O=C[C@H]([18F])[C@@H](O)[C@H](O)[C@H](O)CO [FDG, 2-deoxy-2-[^18F]fluoro-D-glucose]
Normalised Residence Time (h), Average: Remaining [1]: 1.36 h
organs predicted to receive the highest absorbed doses (ranking) [2]: the urinary bladder, followed by the lower large intestinal (LLI) wall and kidneys
organs with highest uptake [4]: brain, heart, kidneys and urinary bladder
Residence Time (h), Average: Brain [3]: 0.0254 h
Residence Time (h), Average: Heart [3]: 0.0387 h
Residence Time (h), Average: Intestine [3]: 0.287 h
Residence Time (h), Average: Kidneys [3]: 0.0499 h
Residence Time (h), Average: Liver [3]: 0.0417 h
Residence Time (h), Average: Lungs [3]: 0.0166 h
Residence Time (h), Average: Remaining [3]: 1.35 h
Residence Time (h), Average: Urinary Bladder [3]: 1.15 h
